“Also recorded” adds a separate entry of the source.
Legend:
[1] = test system: human melanoma (C32, G361 and STMl1la) and nonmelanoma derived cell lines (Caki-2 and CHO); type: cell-based
tyrosinase = assay: Release of drug from prodrug upon treatment with tyrosinase (TLC, GCMS); type: biochemical; conditions: DMSO/phosphate buffer pH 7.2, 25° C., 1 hour; TLC and GCMS
mushroom tyrosinase = assay: Oximetry: oxidation of substrates by tyrosinase; type: biochemical; conditions: 100 μM substrate, 165 units of tyrosinase/ml, room temperature; compared with tyrosine

Compound	relative toxicity (inverse of the IC50) [1]	release of mustard drug upon tyrosinase treatment (tyrosinase)	oxidation by tyrosinase (utilization of oxygen with respect to time) (mushroom tyrosinase)	melting point
NCCc1ccc(O)c(O)c1 [Compound B]	essentially non-toxic	–	–	–
O=C(NCCc1ccc(O)cc1)Oc1ccc(N(CCCl)CCCl)cc1 [Prodrug (1)]	–	a component of identical Rf to the authentic mustard drug had been produced	–	–
O=C(NCCc1ccc(O)c(O)c1)Oc1ccc(N(CCCl)CCCl)cc1 [Compound A, N-(N-bis-chlorethyl-4-amino-phenyloxycarbonyl)-3-hydroxy-tyramine]	relatively non-toxic; also recorded: increasing toxicity with tyrosinase activity	–	oxidised by tyrosinase, although the rate of the reaction was lower than for the normal substrate	80 °C (dec.)
COc1ccc(O)cc1 [4-Hydroxyanisole, 4-hydroxyanisole]	–	–	oxidised, but at a lower rate than tyrosine	–
CC(=O)N[C@@H](Cc1ccc(O)cc1)C(=O)O [N-acetyl tyrosine]	–	–	oxidised, but at a lower rate than tyrosine	–
